The target in one series is T1, hCB-2 (Homo sapiens, UniProt P34972).
T1 construct: purchased Perkin Elmer, Boston, Mass; host or cells: Sf9 cell membranes
Briefly: hCB2-Sf9 antagonist mode SPA GTP-γ-35S binding assay. The class given is biochemical. Particulars: antagonist mode vs methanandamide; read-out: hCB-2 SPA GTPγS Sf9 Membrane Antagonist Kb. How it is done:
(§1) Compounds of the present invention may be tested for functional activity at the CB-1 and CB-2 receptors in both agonist and antagonist modes using SPA (Scintillation Proximity Assay) based GTP-γ-^35S binding assays. All assay components are prepared in assay buffer (20 mM HEPES, 100 mM NaCl, 5 mM MgCl2, pH 7.4) at room temperature. Semi-log dilutions of test compound are prepared in assay buffer containing BSA (0.125% final conc.) for the agonist mode assays. For the antagonist mode assays, test compounds are prepared in the same manner but also include an 80% efficacious dose of a full agonist (methanandamide). GTP-γ^35S binding for the antagonist assay may be measured in a 96 well format using a modification of an antibody capture technique previously described. (DeLapp, N W, et al. (1999) J Pharmacol Exp Ther 289:946-955.) The CB-2 receptor agonist activity may be measured using a similar method using hCB2-Sf9 membranes. The CB-1 receptor agonist activity may be measured using a whole membrane capture technique using hCB1-CHO membranes. All incubations are done at room temperature. […]
(§2) Data are analyzed as follows: Background is subtracted from all wells. […] Percent antagonist inhibition is calculated by first normalizing the data to the signal generated by a saturating concentration of the full agonist (methanandamide). Then the data are analyzed using a 4-parameter logistic reduced fit (Activity Base™ and XLFit3™ from IDBS, Emeryville, Calif.). Kb values are determined using a modification of the Cheng-Prusoff relationship: Kb=IC50/(1+[agonist]/EC50), where “IC50” is determined from a four parameter fit of displacement curves, “[agonist]” is the agonist challenge concentration (nM), and “EC50” is determined from a four parameter fit of a full agonist concentration response curve (Cheng and Prusoff 1973). Mean Kb values are calculated as a mean of at least three independent determinations±standard error of the mean (SEM). […]
On the technique in general: Binding of GTPγS marks nucleotide exchange on a G protein.

The target in a further series is T2, CYP2D6 (Homo sapiens, UniProt P10635).
T2 construct: pooled, mixed gender, human liver microsomes; from tissue; host or cells: pooled, mixed gender human liver microsomes
Briefly: Human CYP fingerprinting, quinidine inhibition. To be noted: 4 μM, human liver microsomes, 30 min, 10 μM quinidine. The class given is in vitro ADME. The procedure:
(§3) CYP fingerprinting is well established technique and is used as an indication of potential risk of drug-drug interactions in the pharmaceutical sciences. Compounds of the present invention may be assayed by well known methods, essentially as follows: Compounds are incubated at 37° C. at a final concentration of 4 μM with pooled, mixed gender, human liver microsomes and 1 mM NADPH (Nicotine Adenine Dinucleotide Phosphate) (final conc.) for 0 and 30 min. without any CYP inhibitor and with each CYP inhibitor in separate incubations for 30 min. Each inhibitor is specific for an individual cytochrome P450. The specific inhibitors used for CYPs 2C9, 2D6 and 3A were sulfaphenazole, quinidine and ketoconazole, respectively. Ketoconazole (CYP3A) is made up at 25 mM in DMSO and then diluted in buffer to a final concentration of 10 μM. Quinidine (CYP2D6) is made up at 5 mM in 50/50 acetonitrile/water and then diluted in buffer to a final concentration of 10 μM. Sulfaphenazole (CYP2C9) is made up at 100 mM in DMSO and then diluted in buffer to a final concentration of 5 μM. Samples are analyzed by LC-MS in positive or negative electrospray mode using a Waters Acquity Ultra Performance LC coupled to a MicroMass Q-T of-2 mass spectrometer.
(§4) Data are analyzed using MetaboLynx™ version 4.1. […]
A general note: Microsomes from liver hold many membrane-bound enzymes, among them those of drug oxidation.

The target of another series is T3, rCB-1 (Rattus norvegicus, UniProt P20272).
T3 construct: purchased Applied Cell Sciences, Rockville, Md; host or cells: CHO cell membranes
Briefly: rCB1-CHO antagonist mode SPA GTP-γ-35S binding assay. The class given is biochemical. To be noted: antagonist mode vs methanandamide; read-out: rCB-1 SPA GTPγS CHO Membrane Antagonist Kb. How it is done: (§5) Compounds of the present invention may be tested for functional activity at the CB-1 and CB-2 receptors in both agonist and antagonist modes using SPA (Scintillation Proximity Assay) based GTP-γ-^35S binding assays. All assay components are prepared in assay buffer (20 mM HEPES, 100 mM NaCl, 5 mM MgCl2, pH 7.4) at room temperature. Semi-log dilutions of test compound are prepared in assay buffer containing BSA (0.125% final conc.) for the agonist mode assays. For the antagonist mode assays, test compounds are prepared in the same manner but also include an 80% efficacious dose of a full agonist (methanandamide). GTP-γ^35S binding for the antagonist assay may be measured in a 96 well format using a modification of an antibody capture technique previously described. (DeLapp, N W, et al. (1999) J Pharmacol Exp Ther 289:946-955.) The CB-2 receptor agonist activity may be measured using a similar method using hCB2-Sf9 membranes. The CB-1 receptor agonist activity may be measured using a whole membrane capture technique using hCB1-CHO membranes. All incubations are done at room temperature.
(§6) hCB1-CHO or rCB1-CHO membranes (Applied Cell Sciences, Rockville, Md.) and GDP (1 μM final) are added to ice cold assay buffer and homogenized. […] Plates are then centrifuged at 700×g for 10 min. and the radioactivity counted.
(§7) Data are analyzed as follows: Background is subtracted from all wells. […] Percent antagonist inhibition is calculated by first normalizing the data to the signal generated by a saturating concentration of the full agonist (methanandamide). Then the data are analyzed using a 4-parameter logistic reduced fit (Activity Base™ and XLFit3™ from IDBS, Emeryville, Calif.). Kb values are determined using a modification of the Cheng-Prusoff relationship: Kb=IC50/(1+[agonist]/EC50), where “IC50” is determined from a four parameter fit of displacement curves, “[agonist]” is the agonist challenge concentration (nM), and “EC50” is determined from a four parameter fit of a full agonist concentration response curve (Cheng and Prusoff 1973). […]

Series [1] addresses T4, hCB-1 (Homo sapiens, UniProt P21554). Briefly: hCB1-CHO antagonist mode SPA GTP-γ-35S binding assay. The class given is biochemical. Details: purchased Applied Cell Sciences, Rockville, Md; host or cells: CHO cell membranes. To be noted: antagonist mode vs methanandamide; read-out: hCB-1 SPA GTPγS CHO Membrane Antagonist Kb. How it is done:
as §5, §6, §7

The test system of another series is CYP3A. Briefly: Human CYP fingerprinting, ketoconazole inhibition. To be noted: 4 μM, human liver microsomes, 30 min, 10 μM ketoconazole. The class given is in vitro ADME. The procedure: as §3, §4
Series [2] addresses T4, hCB-1. Briefly: hCB1-Sf9 antagonist mode SPA GTP-γ-35S binding assay. To be noted: Sf9 membrane 22.7 μg; antagonist mode vs methanandamide; read-out: hCB-1 SPA GTPγS Sf9 Membrane 22.7 μg Antagonist Kb. Also on record: purchased Applied Cell Sciences, Rockville, Md. The class given is biochemical. The procedure:
as §1, §2

Where a name gives a salt, the structure may show the parent alone.

T4 sequence (P21554 whole entry): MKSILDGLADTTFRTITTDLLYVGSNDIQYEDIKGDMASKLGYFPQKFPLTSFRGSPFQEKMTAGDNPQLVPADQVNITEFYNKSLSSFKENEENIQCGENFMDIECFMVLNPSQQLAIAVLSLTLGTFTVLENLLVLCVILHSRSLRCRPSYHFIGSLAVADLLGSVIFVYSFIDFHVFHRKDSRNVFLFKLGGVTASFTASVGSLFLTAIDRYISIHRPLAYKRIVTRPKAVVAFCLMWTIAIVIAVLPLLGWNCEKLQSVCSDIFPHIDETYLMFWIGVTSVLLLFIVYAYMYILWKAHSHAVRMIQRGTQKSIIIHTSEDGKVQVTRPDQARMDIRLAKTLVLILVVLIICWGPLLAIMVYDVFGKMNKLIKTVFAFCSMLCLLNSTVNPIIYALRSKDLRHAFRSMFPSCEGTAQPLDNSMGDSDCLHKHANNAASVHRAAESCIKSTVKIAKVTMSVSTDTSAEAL
T2 sequence (P10635 whole entry): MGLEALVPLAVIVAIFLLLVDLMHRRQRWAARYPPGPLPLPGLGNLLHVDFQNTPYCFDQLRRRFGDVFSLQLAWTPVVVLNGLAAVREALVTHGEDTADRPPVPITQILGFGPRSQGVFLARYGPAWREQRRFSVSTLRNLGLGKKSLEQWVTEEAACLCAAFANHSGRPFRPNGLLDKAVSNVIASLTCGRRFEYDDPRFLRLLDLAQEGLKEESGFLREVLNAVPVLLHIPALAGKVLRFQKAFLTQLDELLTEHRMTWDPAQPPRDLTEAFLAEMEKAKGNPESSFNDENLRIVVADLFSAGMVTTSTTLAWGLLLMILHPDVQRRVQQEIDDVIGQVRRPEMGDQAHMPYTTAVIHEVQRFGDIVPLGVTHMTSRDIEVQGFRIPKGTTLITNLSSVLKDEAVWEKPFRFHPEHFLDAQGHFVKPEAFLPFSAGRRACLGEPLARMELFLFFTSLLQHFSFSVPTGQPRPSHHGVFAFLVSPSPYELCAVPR
T3 sequence (P20272 whole entry): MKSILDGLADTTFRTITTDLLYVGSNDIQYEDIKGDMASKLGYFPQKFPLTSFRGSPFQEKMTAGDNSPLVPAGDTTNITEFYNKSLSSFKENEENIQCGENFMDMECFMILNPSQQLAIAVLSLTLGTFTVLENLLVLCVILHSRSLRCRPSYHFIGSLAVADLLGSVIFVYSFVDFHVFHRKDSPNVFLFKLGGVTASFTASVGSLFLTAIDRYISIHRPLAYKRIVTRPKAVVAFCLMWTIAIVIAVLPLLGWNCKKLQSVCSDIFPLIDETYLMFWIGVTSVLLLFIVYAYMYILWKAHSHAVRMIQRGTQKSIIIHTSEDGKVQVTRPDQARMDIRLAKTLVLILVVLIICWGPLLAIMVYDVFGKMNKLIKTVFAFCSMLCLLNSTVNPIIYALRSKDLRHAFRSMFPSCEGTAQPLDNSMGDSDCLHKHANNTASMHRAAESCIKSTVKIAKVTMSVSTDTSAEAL
T1 sequence (P34972 whole entry): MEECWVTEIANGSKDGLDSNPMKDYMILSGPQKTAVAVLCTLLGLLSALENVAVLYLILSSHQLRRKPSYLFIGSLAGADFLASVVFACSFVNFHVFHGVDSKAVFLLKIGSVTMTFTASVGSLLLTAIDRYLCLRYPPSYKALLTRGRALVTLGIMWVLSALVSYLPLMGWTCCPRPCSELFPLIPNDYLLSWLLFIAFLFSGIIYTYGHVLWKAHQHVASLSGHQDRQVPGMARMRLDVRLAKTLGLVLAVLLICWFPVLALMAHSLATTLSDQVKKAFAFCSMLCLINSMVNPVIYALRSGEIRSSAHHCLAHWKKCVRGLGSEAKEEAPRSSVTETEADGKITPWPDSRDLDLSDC

Broadly, the Kb is the equilibrium dissociation constant of an antagonist, usually derived from a functional assay. Turning to `CC(C)(N[C@@H]1C[C@H](c2cccc(C(F)(F)F)c2)N(c2ccc(OC(F)(F)F)cc2)C1=O)c1cccc(C(F)(F)F)n1` [28 HCl salt, (3R,5R)-3-[1-methyl-1-(6-trifluoromethyl-pyridin-2-yl)-ethylamino]-1-(4-trifluoromethoxy-phenyl)-5-(3-trifluoromethyl-phenyl)-pyrrolidin-2-one], the Kb on hCB-2 is more than 9090 nM; at rCB-1 it was 0.196 nM; on hCB-1 [1] it was 0.464 nM; at hCB-1 [2] it was 0.59 nM. For the same compound, on CYP2D6, the “Risk of Drug Drug Interaction (DDI) CYP2D6” value was “Low”. In the series on CYP3A, the “Risk of Drug Drug Interaction (DDI) CYP3A” value is listed as “Low”.
